The results in this text go back to patent publication US20240108602A1, “TREATMENT OF MENTAL DISORDERS” (GH Research Ireland Limited, priority 2022, published 2024).

This data set deals with human plasma proteins. The data set is described as follows: 5-MeO-DMT binding to human plasma proteins, high throughput dialysis. It is filed as in vitro ADME. The note with it: 4-hour dialysis. The procedure: Following evaluation of the equilibration data, plasma protein binding was investigated at nominal concentrations of 0.1, 1 and 10 μM using a 4-hour dialysis time. […]

Molecules are shown by their SMILES.

On to `COc1ccc2[nH]cc(CCN(C)C)c2c1` [5-MeO-DMT], for which the “Free Fraction in human plasma” value runs as follows: (0.1 μM) 78.7%; (1 μM) 77.3%; (10 μM) 87.0%.
